Experimental data from ChEMBL document CHEMBL1201862, “PubChem BioAssay data set” (2004).
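Protocol summary: plate cells (96-well), add compound at 5 concentrations, incubate 48 h, interpolate endpoints linearly. GI50 = concentration required for 50% inhibition of growth.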 Calls of active or inactive are those of the source. Cut-off read from the data, not from the text of the source: active = GI50 up to about 1.1 µM and inactive = higher.

Columns and labels:
Experiment in all cases: inhibition of tumour cell growth, NCI panel, 48 h
[1] = system: 786-0
[2] = system: A498
[3] = system: A549
[4] = system: ACHN
[5] = system: CAKI-1
[6] = system: CCRF-CEM
[7] = system: COLO 205
[8] = system: DLD-1
[9] = system: DMS-114
[10] = system: DMS-273
[11] = system: EKVX
[12] = system: HCC 2998
[13] = system: HCT-116
[14] = system: HCT-15
[15] = system: HOP-18
[16] = system: HOP-62
[17] = system: HOP-92
[18] = system: HT-29
[19] = system: IGROV-1
[20] = system: K562
[21] = system: KM-20L2
[22] = system: KM12
[23] = system: LOX IMVI
[24] = system: M14
[25] = system: M19-MEL
[26] = system: MOLT-4
[27] = system: Malme-3M
[28] = system: NCI-H226
[29] = system: NCI-H23
[30] = system: NCI-H460
[31] = system: OVCAR-3
[32] = system: OVCAR-4
[33] = system: OVCAR-5
[34] = system: OVCAR-8
[35] = system: RPMI-8226
[36] = system: RXF 631
[37] = system: SF-268
[38] = system: SF-295
[39] = system: SF-539
[40] = system: SK-MEL-28
[41] = system: SK-MEL-2
[42] = system: SK-MEL-5
[43] = system: SK-OV-3
[44] = system: SN12C
[45] = system: SNB-19
[46] = system: SNB-75
[47] = system: SNB-78
[48] = system: SW-620
[49] = system: TK-10
[50] = system: UACC-257
[51] = system: UACC-62
[52] = system: UO-31
[53] = system: XF498
[54] = system: HL-60
[55] = system: LXFL 529
[56] = system: NCI-H522
[57] = system: RXF 393
[58] = system: SR
[59] = system: U-251

In the case of `Cc1ccc(Cc2c(=O)[nH]nc3ccccc23)cc1`, the GI50 [1] is reported as > 100 µM (inactive), the GI50 [2] is reported as > 100 µM (inactive) and the GI50 [3] is reported as > 100 µM (inactive). The GI50 [4] was > 100 µM (inactive), the GI50 [5] was > 100 µM (inactive) and the GI50 [6] was > 100 µM (inactive). The GI50 [7] was > 100 µM (inactive), the GI50 [8] was > 100 µM (inactive) and the GI50 [9] was > 100 µM (inactive). The GI50 [10] was > 100 µM (inactive), the GI50 [11] was > 100 µM (inactive) and the GI50 [12] was > 100 µM (inactive). The GI50 [13] was > 100 µM (inactive), the GI50 [14] was > 100 µM and the GI50 [15] was > 100 µM (inactive). The GI50 [16] was > 100 µM (inactive), the GI50 [17] was 89.7 µM (inactive) and the GI50 [18] was > 100 µM (inactive). For the same molecule, the GI50 [19] was > 100 µM (inactive), the GI50 [20] was > 100 µM (inactive) and the GI50 [21] was > 100 µM (inactive). For the same molecule, the GI50 [22] was > 100 µM (inactive), the GI50 [23] was > 100 µM (inactive) and the GI50 [24] was > 100 µM (inactive). The GI50 [25] was > 100 µM (inactive), the GI50 [26] was > 100 µM (inactive) and the GI50 [27] was > 100 µM (inactive). The GI50 [28] was > 100 µM (inactive), the GI50 [29] was > 100 µM (inactive) and the GI50 [30] was > 100 µM (inactive). The GI50 [31] was > 100 µM (inactive), the GI50 [32] was > 100 µM (inactive) and the GI50 [33] was > 100 µM (inactive). The GI50 [34] was > 100 µM (inactive), the GI50 [35] was > 100 µM (inactive) and the GI50 [36] was > 100 µM (inactive). For the same molecule, the GI50 [37] was > 100 µM (inactive), the GI50 [38] was 89.5 µM (inactive) and the GI50 [39] was > 100 µM (inactive). The GI50 [40] was > 100 µM (inactive), the GI50 [41] was > 100 µM (inactive) and the GI50 [42] was > 100 µM (inactive). The GI50 [43] was > 100 µM (inactive), the GI50 [44] was > 100 µM (inactive) and the GI50 [45] was > 100 µM (inactive). The GI50 [46] was 79.8 µM (inactive), the GI50 [47] was > 100 µM (inactive) and the GI50 [48] was > 100 µM (inactive). For the same molecule, the GI50 [49] was > 100 µM (inactive), the GI50 [50] was > 100 µM (inactive) and the GI50 [51] was > 100 µM (inactive). For the same molecule, the GI50 [52] was 58.3 µM (inactive) and the GI50 [53] was 30.2 µM (inactive).
With `COC(=O)CCCCCOS(=O)(=O)c1ccc(C)cc1` the GI50 [1] was > 100 µM (inactive), the GI50 [2] was > 100 µM (inactive) and the GI50 [3] was > 100 µM (inactive). The GI50 [4] was > 100 µM (inactive), the GI50 [6] was > 100 µM (inactive) and the GI50 [7] was > 100 µM (inactive). For the same molecule, the GI50 [8] was > 100 µM (inactive), the GI50 [9] was > 100 µM (inactive) and the GI50 [10] was > 100 µM (inactive). The GI50 [11] was > 100 µM (inactive), the GI50 [12] was > 100 µM (inactive) and the GI50 [13] was > 100 µM (inactive). The GI50 [14] was > 100 µM, the GI50 [54] was > 100 µM (inactive) and the GI50 [15] was > 100 µM (inactive). For the same molecule, the GI50 [17] was > 100 µM (inactive), the GI50 [18] was > 100 µM (inactive) and the GI50 [19] was > 100 µM (inactive). For the same molecule, the GI50 [20] was > 100 µM (inactive), the GI50 [21] was > 100 µM (inactive) and the GI50 [22] was > 100 µM (inactive). For the same molecule, the GI50 [23] was > 100 µM (inactive), the GI50 [55] was > 100 µM (inactive) and the GI50 [24] was > 100 µM (inactive). For the same molecule, the GI50 [25] was > 100 µM (inactive), the GI50 [26] was 78.7 µM (inactive) and the GI50 [27] was > 100 µM (inactive). For the same molecule, the GI50 [29] was > 100 µM (inactive), the GI50 [30] was > 100 µM (inactive) and the GI50 [56] was > 100 µM (inactive). The GI50 [31] was > 100 µM (inactive), the GI50 [33] was > 100 µM (inactive) and the GI50 [34] was > 100 µM (inactive). For the same molecule, the GI50 [57] was > 100 µM (inactive), the GI50 [36] was > 100 µM (inactive) and the GI50 [37] was > 100 µM (inactive). For the same molecule, the GI50 [38] was > 100 µM (inactive), the GI50 [39] was > 100 µM (inactive) and the GI50 [40] was > 100 µM (inactive). For the same molecule, the GI50 [41] was > 100 µM (inactive), the GI50 [42] was > 100 µM (inactive) and the GI50 [43] was > 100 µM (inactive). For the same molecule, the GI50 [44] was > 100 µM (inactive), the GI50 [45] was > 100 µM (inactive) and the GI50 [46] was > 100 µM (inactive). For the same molecule, the GI50 [47] was > 100 µM (inactive), the GI50 [58] was > 100 µM (inactive) and the GI50 [48] was > 100 µM (inactive). The GI50 [49] was > 100 µM (inactive), the GI50 [59] was > 100 µM (inactive) and the GI50 [50] was > 100 µM (inactive). For the same molecule, the GI50 [51] was > 100 µM (inactive), the GI50 [52] was > 100 µM (inactive) and the GI50 [53] was > 100 µM (inactive).
With `CCCCC(C(=O)C(=O)Nc1ccc(C)cc1C)C(=O)C(C)C` (stereo unspecified) the GI50 [1] was > 100 µM (inactive), the GI50 [2] was > 100 µM (inactive) and the GI50 [3] was > 100 µM (inactive). The GI50 [4] was > 100 µM (inactive), the GI50 [5] was > 100 µM (inactive) and the GI50 [8] was > 100 µM (inactive). For the same molecule, the GI50 [9] was > 100 µM (inactive), the GI50 [10] was > 100 µM (inactive) and the GI50 [11] was > 100 µM (inactive). The GI50 [12] was > 100 µM (inactive), the GI50 [13] was > 100 µM (inactive) and the GI50 [14] was > 100 µM. The GI50 [54] was > 100 µM (inactive), the GI50 [15] was > 100 µM (inactive) and the GI50 [16] was > 100 µM (inactive). The GI50 [17] was > 100 µM (inactive), the GI50 [18] was > 100 µM (inactive) and the GI50 [19] was > 100 µM (inactive). For the same molecule, the GI50 [20] was > 100 µM (inactive), the GI50 [21] was > 100 µM (inactive) and the GI50 [22] was > 100 µM (inactive). The GI50 [23] was > 100 µM (inactive), the GI50 [55] was > 100 µM (inactive) and the GI50 [24] was > 100 µM (inactive). The GI50 [25] was > 100 µM (inactive), the GI50 [26] was > 100 µM (inactive) and the GI50 [27] was > 100 µM (inactive). For the same molecule, the GI50 [28] was > 100 µM (inactive), the GI50 [29] was > 100 µM (inactive) and the GI50 [30] was > 100 µM (inactive). For the same molecule, the GI50 [31] was > 100 µM (inactive), the GI50 [32] was > 100 µM (inactive) and the GI50 [33] was > 100 µM (inactive). The GI50 [34] was > 100 µM (inactive), the GI50 [35] was > 100 µM (inactive) and the GI50 [57] was > 100 µM (inactive). For the same molecule, the GI50 [36] was > 100 µM (inactive), the GI50 [37] was > 100 µM (inactive) and the GI50 [38] was > 100 µM (inactive). For the same molecule, the GI50 [39] was > 100 µM (inactive), the GI50 [40] was > 100 µM (inactive) and the GI50 [41] was > 100 µM (inactive). For the same molecule, the GI50 [42] was > 100 µM (inactive), the GI50 [44] was > 100 µM (inactive) and the GI50 [45] was > 100 µM (inactive). The GI50 [46] was > 100 µM (inactive), the GI50 [47] was > 100 µM (inactive) and the GI50 [48] was > 100 µM (inactive). The GI50 [49] was > 100 µM (inactive), the GI50 [59] was > 100 µM (inactive) and the GI50 [50] was > 100 µM (inactive). The GI50 [51] was > 100 µM (inactive), the GI50 [52] was > 100 µM (inactive) and the GI50 [53] was > 100 µM (inactive).
